The target in one data set is T1, MDR1 (Homo sapiens, UniProt P08183).
T1 construct: expressed in transfected cells; host or cells: LLC-PK1 (porcine kidney cells)
In words: MDR1 membrane permeability test. The format is in vitro ADME. Particulars: pH 7.4, efflux ratio (ER), human MDR1-expressing LLC-PK1 cells, 37° C., read-out: MDR1 substrate screening 1 μM (MDRSUB1)/Ratio (NUMBER). On the procedure:
MDR1 Membrane Permeability Test
When MDR1 is expressed in excess in LLC-PK1 cell, which is a polar cell, MDR1 is localized in apical membrane (A), thus promoting transcellular transport from the basement membrane side (B) toward direction A. When a ratio to the transcellular transport in the opposite direction is taken and a ratio to a control cell in which a mock vector has been introduced is further taken, an efflux ratio of MDR1 to simple diffusion (corrected efflux ratio) is calculated. Similarly, when a brain/plasma concentration ratio in Mdr1(−/−) mouse is divided by a brain/plasma concentration ratio in wild-type mouse, an efflux ratio of Mdr1 to simple diffusion in blood-brain barrier (BBB) (Kp, brain ratio, higher value means lower central nervous system permeability) is calculated. Adachi Y. et al. (Reference 1) has reported a positive correlation between corrected efflux ratio and Kp, brain ratio (FIG. 5(C)), and efflux ratio in MDR1 expressing cell and Kp, brain ratio (FIG. 5(B)).
To confirm the central nervous system permeability of the compounds of the present invention, a MDR1 membrane permeability test was performed by the following method.
Digoxin and lucifer yellow (LY) were purchased from Sigma-Aldrich, Diclofenac, colchicine and alprenolol were purchased from Wako Pure Chemical Industries, Ltd., and other reagents used were commercially available products of special grade.
Human MDR1-expressing LLC-PK1 cells were cultured according to the report of Takeuchi et al. (Reference 2). Human MDR1-expressing LLC-PK1 cells were cultured in 10% fetal bovine serum (Invitrogen), 500 μg/ml G418 (Invitrogen), 150 ng/ml colchicine-containing M199 medium (Invitrogen) under 5% CO2 conditions at 37° C.
Transcellular transport was performed according to the report of Sugimoto et al. (Reference 3). The cells were cultured for 3 days on HTS Transwell (registered trademark) 96 well permeable support (pore size 0.4 μm, 0.143 cm^2 surface area, Corning Life Sciences) having polyethylene terephthalate membrane on which the cells had been seeded at 3.45×10^4 cells/well. After preincubation in M199 medium (containing 10 mmol/L HEPES, 1% BSA, pH 7.4) for 30 min, a drug solution (10 μmol/L digoxin, 200 μmol/L LY, […]) dissolved in M199 medium was added to the apical side or basolateral side of the Transwell by 75 or 250 μL each and the cells were cultured under 5% CO2 conditions at 37° C. After 1 hr, the sample was collected from the side opposite to the side where the drug solution was added, and the concentration of the test compound was measured by LC-MS/MS. As an internal standard substance, 100 ng/mL alprenolol and diclofenac were used. The analysis conditions were as follows. • LC: UFLC LC-20 (Shimadzu) • MS/MS: API4000 (AB Sciex Instruments) • LC condition: gradient method
[formula] • Amount: amount of transported digoxin/well • Area: surface area of cell monolayer (0.143 cm^2) • C0: concentration of drug solution added • Time: incubation time

Data set [1] in a line: Rat PK test (cassette dosing). Type of data set: in vivo. Particulars: male SD rats, plasma; for Tmax: oral 1 mg/kg and iv 0.1 mg/kg given, route not stated for Tmax, read-out: Tmax (time to reach maximum plasma concentration); for clearance / MRT: intravenous 0.1 mg/kg; for clearance: read-out: CL total (total clearance) (converted); for MRT: read-out: MRT iv (mean residence time). On the procedure: As the rat, 8-week-old male SD rats (Japan SLC, Inc.) were used. They were fed on a solid commercially available diet (CE-2, CLEA Japan, Inc.) and allowed to freely ingest tap water as the drinking water. An intravenous administration solution for the rats was prepared by weighing a test compound, dissolving same in dimethylacetamide (DMA) (Wako Pure Chemical Industries, Ltd.), adding the same volume of 1,3-butanediol (Wako Pure Chemical Industries, Ltd.) and mixing by stirring to give a DMA:1,3-butanediol (1:1, v/v) solution. An oral administration solution was prepared by weighing a test compound, pulverizing same in an agate mortar, and gradually adding 0.5 w/v % aqueous methylcellulose solution to give a suspension. For intravenous administration, the solution was administered into femoral vein of the rats at 0.1 mg/0.5 mL/kg (salt converted to free form). For oral administration, the suspension was administered to the rats at 1 mg/5 mL/kg (salt converted to free form). The cassette dosing method was used for the both administration routes, and the test compound was administered in the following manner. • Compound of Example 20 (intravenous: 8 compounds cassette administration, oral: 5 compounds cassette administration) • Compound of Example 22 (intravenous: 5 compounds cassette administration, oral: 5 compounds cassette administration) • Compound of Example 31 (intravenous: 10 compounds cassette administration, oral: 5 compounds cassette administration) • Compound of Example 36 (intravenous: 10 compounds cassette administration, oral: 5 compounds cassette administration) • Compound of Example 44 (intravenous: 10 compounds cassette administration, oral: 5 compounds cassette administration) • Compound of Example 55 (intravenous: 6 compounds cassette administration, oral: 4 compounds cassette administration) • Compound of Example 74 (intravenous: 10 compounds cassette administration, oral: 5 compounds cassette administration) • Compound of Example 76 (intravenous: 9 compounds cassette administration, oral: 4 compounds cassette administration) • Compound of Example 77 (intravenous: 10 compounds cassette administration, oral: 5 compounds cassette administration) • Compound of Example 102 (intravenous: 10 compounds cassette administration, oral: 5 compounds cassette administration) • Compound of Example 109 (intravenous: 7 compounds cassette administration, oral: 4 compounds cassette administration)
In the case of intravenous administration, blood samples were collected from the tail vein at 5, 10, 15, 30 min, 1, 2, 4, 8 hr after administration, an anticoagulation treatment with heparin sodium (Shimizu Pharmaceutical Co., Ltd.) was performed, and plasma was collected after centrifugation and subjected to the measurement of drug concentration. In the case of oral administration, blood samples were collected from the tail vein at 15, 30 min, 1, 2, 4, 8 hr after administration, an anticoagulation treatment with heparin sodium was performed, and plasma was collected after centrifugation and subjected to the measurement of drug concentration.
All drug concentrations were measured by LC-MS/MS analysis. For a pharmacokinetics test, the plasma (50 μL) was placed in a tube, acetonitrile (150 μL) containing internal standard solution was added and they were mixed on a vortex mixer. Thereafter, the mixture was centrifuged (5000 rpm, 5 min, 4° C.). The supernatant (60 μL) after centrifugation was added to 10 mmol/L ammonium formate (160 μL) added earlier and mixed therewith. This sample was injected to LC/MS/MS. […]

T1 sequence (P08183 whole entry): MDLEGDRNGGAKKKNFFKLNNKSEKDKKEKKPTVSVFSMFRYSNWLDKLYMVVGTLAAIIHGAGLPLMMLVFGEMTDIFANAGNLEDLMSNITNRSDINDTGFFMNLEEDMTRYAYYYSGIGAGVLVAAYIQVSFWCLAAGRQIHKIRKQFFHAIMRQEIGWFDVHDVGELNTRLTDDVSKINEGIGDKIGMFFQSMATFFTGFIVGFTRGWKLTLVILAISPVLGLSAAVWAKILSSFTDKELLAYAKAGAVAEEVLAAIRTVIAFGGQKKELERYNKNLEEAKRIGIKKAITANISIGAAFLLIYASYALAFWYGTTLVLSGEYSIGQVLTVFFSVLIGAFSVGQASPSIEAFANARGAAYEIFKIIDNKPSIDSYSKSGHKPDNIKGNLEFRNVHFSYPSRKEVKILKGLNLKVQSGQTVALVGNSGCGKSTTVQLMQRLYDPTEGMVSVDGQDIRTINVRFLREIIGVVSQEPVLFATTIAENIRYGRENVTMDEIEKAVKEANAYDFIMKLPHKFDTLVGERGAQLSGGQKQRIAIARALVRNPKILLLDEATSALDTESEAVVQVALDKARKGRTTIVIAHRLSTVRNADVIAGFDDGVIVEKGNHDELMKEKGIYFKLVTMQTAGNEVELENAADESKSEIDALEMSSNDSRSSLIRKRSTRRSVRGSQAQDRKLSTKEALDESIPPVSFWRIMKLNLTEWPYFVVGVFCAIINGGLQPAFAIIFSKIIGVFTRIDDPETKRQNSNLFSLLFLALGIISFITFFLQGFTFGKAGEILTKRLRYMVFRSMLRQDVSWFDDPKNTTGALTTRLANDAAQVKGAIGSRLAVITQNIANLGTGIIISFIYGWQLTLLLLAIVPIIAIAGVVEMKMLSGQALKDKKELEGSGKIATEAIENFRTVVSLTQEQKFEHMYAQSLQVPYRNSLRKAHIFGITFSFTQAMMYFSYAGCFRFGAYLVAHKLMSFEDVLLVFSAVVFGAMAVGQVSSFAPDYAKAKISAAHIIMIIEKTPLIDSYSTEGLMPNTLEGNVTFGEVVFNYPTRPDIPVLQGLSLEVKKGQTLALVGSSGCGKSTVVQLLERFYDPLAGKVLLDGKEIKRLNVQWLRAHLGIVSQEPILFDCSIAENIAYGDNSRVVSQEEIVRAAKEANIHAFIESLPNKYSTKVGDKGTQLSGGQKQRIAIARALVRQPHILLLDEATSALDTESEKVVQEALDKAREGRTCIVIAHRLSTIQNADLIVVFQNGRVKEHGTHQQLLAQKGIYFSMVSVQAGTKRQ

Broadly, the clearance is a measure of how efficiently the substance is removed, as volume per time. By MRT is commonly meant the average time that molecules of a dose stay in the body. For the compound `O=C(N[C@H]1CCOC[C@@H]1O)c1cc(Cc2ccc(-n3cccn3)cc2)c2c(n1)CCO2` [Example 22, 1,5-anhydro-2,3-dideoxy-3-(((7-(4-(1H-pyrazol-1-yl)benzyl)-2,3-dihydrofuro[3,2-b]pyridin-5-yl)carbonyl)amino)-L-threo-pentitol], at MDR1, the efflux ratio at 1 h, 1 μM is 2.6. In data set [1], the Tmax is 2 h, the clearance is 4.67 mL/min/kg and the MRT came out at 1.9 h.

On to `Cn1cc(-c2ccc(Cc3cc(C(=O)N[C@H]4CCOC[C@@H]4O)nc4c3OCC4)cc2)nn1` [Example 31, 1,5-anhydro-2,3-dideoxy-3-(((7-(4-(1-methyl-1H-1,2,3-triazol-4-yl)benzyl)-2,3-dihydrofuro[3,2-b]pyridin-5-yl)carbonyl)amino)-L-threo-pentitol], for which the efflux ratio at 1 h, 1 μM at MDR1 worked out at 11. Further, in data set [1], the Tmax is 1 h, the clearance was 3.33 mL/min/kg and the MRT turned out to be 1.5 h.

Regarding `COCCNC(=O)c1ccc(Cc2cc(C(=O)N[C@H]3CCOC[C@@H]3O)nc3ccoc23)cc1F` [Example 109, 1,5-anhydro-2,3-dideoxy-3-(((7-(3-fluoro-4-((2-methoxyethyl)carbamoyl)benzyl)furo[3,2-b]pyridin-5-yl)carbonyl)amino)-L-threo-pentitol], the efflux ratio at 1 h, 1 μM at MDR1 was found to be 10. In data set [1], the Tmax is 1 h, the clearance was 6.73 mL/min/kg and the mean residence time (MRT) amounted to 1.5 h.

For `O=C(N[C@H]1CCOC[C@@H]1O)c1cc(Cc2ccc(C(=O)NC[C@@H]3CCCO3)c(F)c2)c2occc2n1` [Example 102, 1,5-anhydro-2,3-dideoxy-3-(((7-(3-fluoro-4-(((2S)-tetrahydrofuran-2-ylmethyl)carbamoyl)benzyl)furo[3,2-b]pyridin-5-yl)carbonyl)amino)-L-threo-pentitol], the efflux ratio at 1 h, 1 μM on MDR1 is 20. For the same compound, in data set [1], the Tmax worked out at 1 h, the clearance was 11.7 mL/min/kg and the MRT worked out at 0.9 h.

`O=C(N[C@H]1CCOC[C@@H]1O)c1cc(Cc2ccc(C(=O)NC[C@@H]3CCCO3)c(F)c2)c2c(n1)CCO2` [Example 77, 1,5-anhydro-2,3-dideoxy-3-(((7-(3-fluoro-4-(((2S)-tetrahydrofuran-2-ylmethyl)carbamoyl)benzyl)-2,3-dihydrofuro[3,2-b]pyridin-5-yl)carbonyl)amino)-L-threo-pentitol]: at MDR1, the efflux ratio at 1 h, 1 μM was determined as 25. In data set [1], the Tmax stood at 1 h, the clearance was 8.13 mL/min/kg and the MRT was 0.8 h.

`COCCNC(=O)c1ccc(Cc2cc(C(=O)N[C@H]3CCOC[C@@H]3O)nc3c2OCC3)cc1F` [Example 76, 1,5-anhydro-2,3-dideoxy-3-(((7-(3-fluoro-4-((2-methoxyethyl)carbamoyl)benzyl)-2,3-dihydrofuro[3,2-b]pyridin-5-yl)carbonyl)amino)-L-threo-pentitol]: the efflux ratio at 1 h, 1 μM on MDR1 worked out at 35. For the same compound, in data set [1], the Tmax is 0.8 h, the clearance was 5.58 mL/min/kg and the MRT was determined as 1.2 h.

Consider `Cn1cc(-c2ccc(Cc3cc(C(=O)N[C@H]4CCOC[C@@H]4O)nc4c3OCC4)cc2)cn1` [Example 44, 1,5-anhydro-2,3-dideoxy-3-(((7-(4-(1-methyl-1H-pyrazol-4-yl)benzyl)-2,3-dihydrofuro[3,2-b]pyridin-5-yl)carbonyl)amino)-L-threo-pentitol], for which the efflux ratio at 1 h, 1 μM on MDR1 was 5.5. Further, in data set [1], the Tmax was 1.3 h, the clearance was 4.77 mL/min/kg and the mean residence time (MRT) was found to be 1.3 h.

In the case of `Cn1cc(-c2ccc(Cc3cc(C(=O)N[C@H]4CCOC[C@@H]4O)nc4ccoc34)cc2)nn1` [Example 20, 1,5-anhydro-2,3-dideoxy-3-(((7-(4-(1-methyl-1H-1,2,3-triazol-4-yl)benzyl)furo[3,2-b]pyridin-5-yl)carbonyl)amino)-L-threo-pentitol], the efflux ratio at 1 h, 1 μM at MDR1 amounted to 4.8. In data set [1], the Tmax is 2 h, the clearance was 4.1 mL/min/kg and the mean residence time (MRT) was found to be 1.8 h.

On to `Cn1cnc(-c2ccc(Cc3cc(C(=O)N[C@H]4CCOC[C@@H]4O)nc4c3OCC4)cc2)c1` [Example 74, 1,5-anhydro-2,3-dideoxy-3-(((7-(4-(1-methyl-1H-imidazol-4-yl)benzyl)-2,3-dihydrofuro[3,2-b]pyridin-5-yl)carbonyl)amino)-L-threo-pentitol], for which the efflux ratio at 1 h, 1 μM at MDR1 amounted to 11. For the same compound, in data set [1], the Tmax was 0.8 h, the clearance is 14 mL/min/kg and the mean residence time MRT was 0.9 h.

On to `Cn1cc(-c2ccc(Cc3cc(C(=O)N[C@H]4CCOC[C@@H]4O)nc4ccoc34)cn2)cn1` [Example 36, 1,5-anhydro-2,3-dideoxy-3-(((7-((6-(1-methyl-1H-pyrazol-4-yl)pyridin-3-yl)methyl)furo[3,2-b]pyridin-5-yl)carbonyl)amino)-L-threo-pentitol], for which the efflux ratio at 1 h, 1 μM at MDR1 stood at 9.1. For the same compound, in data set [1], the Tmax is 1.3 h, the clearance was 5.45 mL/min/kg and the MRT stood at 1.9 h.

As for `Cn1cc(-c2ccc(C(F)c3cc(C(=O)N[C@H]4CCOC[C@@H]4O)nc4ccoc34)cc2)nn1` (single isomer, unassigned) [Example 55, 1,5-anhydro-2,3-dideoxy-3-(((7-(fluoro(4-(1-methyl-1H-1,2,3-triazol-4-yl)phenyl)methyl)furo[3,2-b]pyridin-5-yl)carbonyl)amino)-L-threo-pentitol], the efflux ratio at 1 h, 1 μM at MDR1 came to 6.5. In addition, in data set [1], the Tmax was 1.7 h, the clearance is 30.2 mL/min/kg and the MRT was 0.6 h.

These data come from patent US12378256B2, “Heterocyclic compound” (Takeda Pharmaceutical Company Limited, priority 2017, dated 2025).
